The source of these data is patent US9498429B2, “Use of a vegetal extract for the prevention and treatment of hair loss” (GIULIANI S.P.A., priority 2013, dated 2016).

This assay deals with murine fibroblasts BALB3T3. Kind of assay: MTT with induced oxidative stress-BALB3T3. Format: cell-based. The settings on record: 25 μM; oxidative stress induced with H2O2. Here is the method:
Non-treated cells in DMEM medium (Dulbecco's Modified Eagle's Medium, ATCC, Manassas, Va., USA) added to 2.5% fetal bovine serum (FCS), 1% non-essential amino acids (NEAA), a 1% penicillin and streptomycin mixture (Pen-Strep Mix), and maintained in 25 cm^2 (96 well) culture plates at 37° C. and under 5% CO2.
Cells treated for 2 hrs with 1 mM hydrogen peroxide in DMEM medium (Dulbecco's Modified Eagle's Medium, ATCC, Manassas, Va., USA) added to 2.5% fetal bovine serum (FCS), 1% non-essential amino acids (NEAA), a 1% penicillin and streptomycin mixture (Pen-Strep Mix), and maintained in 25 cm^2 (96 well) culture plates at 37° C. and under 5% CO2 (in the dark). […]
Studies conducted in 2005 by Rajapakse and colleagues (2005) have highlighted the possibility of employing a widely used and versatile method such that of the MTT essay for studying the in vitro anti-oxidant activity of active compounds. […] The possible protecting effects may be determined by the assessment of the post-oxidative stress cell viability of cells pre-treated/pre-exposed to the active compounds to be tested, in comparison to cells subjected to the same oxidative stress. […]
The data were expressed as the percentage of cell viability as compared to the non-stressed control cells (ctr), according to the following formula: cell viability/ctr=(Abs sample/Abs ctr)*100 […]

As for `Cc1c(C)c2c(c(C)c1O)CC[C@@](C)(CCC[C@H](C)CCC[C@H](C)CCCC(C)C)O2` [α-tocopherol], the Scavenger activity was 43.10.
